Test results reported in patent publication US20110281911A1, “NOVEL FORMS OF EPERISONE” (Bionevia Pharmaceuticals, Inc., priority 2008, published 2011).
Counter-ions that a name gives are not always drawn.

Assay: Solubility in acetonitrile, calculated based on the total solvent used to give a solution
Format: physicochemical
Settings: organic solvent or mixture, thermodynamic from solid

CCc1ccc(C(=O)C(C)CN2CCCCC2)cc1 (single isomer, unassigned) [substantially enantiopure crystalline eperisone hydrochloride, eperisone hydrochloride]
solubility: > 11 mg/mL
